This note sets out measurements from PMC7708037, “Targeting OGG1 arrests cancer cell proliferation by inducing replication stress” (Nucleic Acids Research, 2020).

“Also recorded” adds a separate entry of the source.

Assay [1] concerns Hematological cancer cell lines. The experiment in a line: Resazurin viability, cell line panel. In kind it is cell-based. The conditions noted are these: read-out: EC50, average over cell lines. The procedure: (§1) Cells were seeded in 96- or 384-well plates and incubated for 3 days for combination experiments or 5 days for single-drug exposure experiments. Resazurin (R7017, SigmaAldrich) was added to a final concentration of 0.01 mg/ml resazurin and fluorescence was measured at ex530/em590 after incubation for 2, 4 or 6 h. Curves were fitted using XLfit software (IDBS) or Prism 8.0 (Graphpad Software), and EC50 values were determined.
(§2) Figure 3. The OGG1 inhibitor TH5487 is selectively toxic to oncogene-expressing cells and cancer cell lines. (A) Close-up view of ligand TH5487 (green) binding to human OGG1. Important residues in the binding site are marked, hydrogen bond interactions are shown in black dashed line, water (red sphere)-mediated interactions in grey dashed line. (B) Comparison between the binding of ligand TH5487 (green) to human OGG1 (gray) with the structure of TH5675 (pink) bound to mouse OGG1 (yellow, PDB 6G3Y). (C) Viability of BJ-Tert and BJ-Ras cells exposed to the indicated concentrations TH5487 for five days. Data are average ±SD of four technical replicates from two independent experiments. (D) Clonogenic survival of cell lines exposed to TH5487. The cancer cell lines ACHN and H460, and the non-transformed cell lines MRC5 and Ogg1^−/− mouse embryonic fibroblasts (MEF) were incubated for 6–11 days in the presence of the indicated concentrations TH5487, followed by colony enumeration. Data are average ±SD values of four technical replicates, representative of three independent experiments. (E) TH5487 selectively decreases viability of cancer cell lines. EC50-values of 34 cancer (red) and 7 non-transformed cell lines (blue). Cells were exposed to a dilution series of TH5487 for five days followed by a viability assessment using resazurin. All cell lines were tested in two to ten independent experiments. Each point represents the EC50-value from one experiment (average of two or three technical replicates). (F) Comparative analysis of EC50 values for TH5487 in cancer- and non-transformed cell lines, and CD34+ hematopoietic stem cells, CD34- fraction from cord blood or PBMCs from healthy donor blood. All primary blood cells were tested upon activation with Dynabeads/Phytohemagglutinin or not and exposed to a dilution series of TH5487 to calculate EC50 values by resazurin assay.

The subject of another assay is cancer cell lines. Description: Resazurin viability, cell line panel. It counts as cell-based. On the procedure: as §1, §2
For orientation: The colour change of resazurin is a common sign of viable cells or microbes.

The subject of assay [2] is non-transformed cell lines. The experiment in a line: Resazurin viability, cell line panel. In kind it is cell-based. To be noted: Figure 3F, read-out: EC50 (loss of proliferation), average over cell lines. On the procedure: as §1, §2
Assay [3] deals with primary blood cells (CD34+ cells, CD34- fraction from cord blood, PBMCs). The experiment in a line: Resazurin viability of primary blood cells. In kind it is cell-based, human. On the procedure:
as §1
Peripheral blood mononuclear Cells (PBMC) were isolated from peripheral whole blood from controls using Histopaque®-1077 (Sigma-Aldrich, San Luis, MO, USA) following the manufacturer's instructions. Briefly, peripheral blood was collected in heparin and diluted with equal amount of PBS. Next, blood was centrifuged with Histopaque®-1077 at 400 × g for 30 min at room temperature and the PBMC layer was recovered. All steps were processed within 4 h after blood extraction.
Isolation of total CD34+ cells was performed from umbilical cord blood samples (CB) from healthy donors distributed from Centro de Transfusión de la Comunidad de Madrid. All samples were collected under written consent and institutional review board agreement. CD34+ cells was obtained from mononuclear cells were separated by fractionation in Ficoll-hypaque according to manufacturer's recommendations (GE Healthcare). […]

The test system of assay [4] is EdU incorporation in A3 cells. The experiment in a line: EdU flow cytometry analysis. It counts as cell-based, human. To be noted: 10 μM. The procedure: At the indicated time points, compound/dox treated cells were incubated in medium containing 10 μM 5-ethynyl-2′-deoxyuridine (EdU) (Thermo Fisher, A10044) for 20 min. Next, cells were fixed in cold 70% ethanol overnight. The azide alkyne Huisgen cycloaddition (‘Click reaction’) was carried out according to the Click-iT EdU Imaging Manual (Thermo Fisher) using various fluorescent dyes: Alexa Fluor® 488 azide (Thermo Fisher, A10266), Alexa Fluor® 647 azide (Thermo Fisher, A10277), or TAMRA azide (Thermo Fisher, T10182), depending on assay conditions. Samples were incubated with Alexa Fluor® 488 Mouse anti-H2AX (pS139) (BD Biosciences, 560445) overnight at 4°C and finally stained with DAPI solution [10 μg/ml DAPI (Sigma, D9542), 0.1 mg/ml RNase A (Thermo Fisher, EN0531), 1% BSA in PBS] for 20 min at room temperature. Measurements were done using a Navios Flow Cytometer (Beckman Coulter). Data was analyzed using Kaluza® Flow Analysis Software (Beckman Coulter).
Supplementary Fig. S7: EdU incorporation in OGG1 perturbed A3 cells. A. Cells harboring the indicated shRNA constructs were treated with doxycycline for 48, 96 and 144 h and pulsed with EdU for 20 minutes before fixation, followed by Alexa-488 conjugation by click chemistry and quantitation by flow cytometry. […] Statistical significance was determined using unpaired, two-sided T-tests (*, […]
(Flow cytometry measures light scatter and fluorescence of single cells or particles in a stream.)

Regarding `O=C(Nc1ccc(I)cc1)N1CCC(n2c(=O)[nH]c3c(Br)cccc32)CC1` [TH5487], the EC50 in assay [1] is 14.7 ± 4.7 µM; in the assay on cancer cell lines (tested cancer cell lines, Figure 3F, read-out: EC50 (loss of proliferation), average over cell lines) it was 17.9 ± 6.9 µM; in assay [2] it was 36.9 ± 7.5 µM; in assay [3] (primary blood cells from healthy donors, activated or not, read-out: EC50, average over primary blood cells), 35.1 ± 20 µM. Also, the “Selectivity of growth inhibition, cancer vs non-transformed cell lines” value with cancer cell lines (large panel of cancer and non-transformed cell lines, 5 days) was “caused loss of viability in cancer cells while being better tolerated in non-transformed cell lines”. Also, in assay [3] (CD34+ cells, resting and activated CD34- cells from umbilical cord blood, healthy donors), the “Tolerance by hematopoietic primary cells” value is recorded as “well tolerated”. Moreover, the “DNA synthesis (EdU incorporation)” value in assay [4] was “only detectable after 96 h treatment; also recorded: DNA synthesis was reduced”.
